Like-named read-outs stand apart in the source and are kept apart here.
How the values were obtained:
SpsB = target: T1, SpsB (Staphylococcus aureus, UniProt P0A070); experiment: Inhibition of SpsB enzyme activity (fluorescence-based assay, bacterial membrane fraction); assay type: biochemical
T1 construct: using a bacterial membrane fraction as a source of SpsB; from tissue
T1 sequence (P0A070 1-191): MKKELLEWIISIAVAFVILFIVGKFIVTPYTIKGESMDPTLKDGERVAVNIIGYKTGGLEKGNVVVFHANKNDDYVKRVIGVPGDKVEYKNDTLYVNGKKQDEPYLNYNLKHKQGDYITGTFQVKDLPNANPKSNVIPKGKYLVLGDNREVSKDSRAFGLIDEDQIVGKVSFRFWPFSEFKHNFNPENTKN
Experimental: Signal peptidase enzyme activity was measured in a fluorescence-based assay using a bacterial membrane fraction as a source of SpsB (See Bruton et al., 2003, Eur J Med Chem 38:351-356). The SpsB substrate is a synthetic lipopeptide, decanoyl-K(DABCYL)-TPTAKA↓ASKKD-D(EDANS)—NH2 (prepared by JPT Peptide Technologies, Berlin, Germany). Assays were performed with 20 μM peptide substrate (Km≈5 μM) and reactions were initiated with enzyme addition (final protein concentration of 0.6 mg/mL). SpsB mediated cleavage of the peptide substrate was detected as an increase in fluorescence (excitation 340 nm/emission 460 nm).

[1] = tested on: MB 5393 (COL), a methicillin-resistant S. aureus strain; experiment: Determination of minimum and synergistic inhibitory concentration; assay type: cell-based; conditions: for SIC: presence of imipenem (4 μg/mL); for MIC: Staphylococcus aureus
Experimental: MB 5393 (COL), a methicillin-resistant S. aureus strain, was inoculated into Trypticase Soy Broth (TSB, BBL) and grown in a humidified incubator for 18 hours with rotary shaking at 220 rpm and kept on ice until used.
A quantity of imipenem (Merck Chemical Collection) was weighed out and dissolved into sterile 10 mM MOPS buffer at pH 7. This solution was diluted to 1600 μg/mL, 200 μg/mL, and 25 μg/mL and filter-sterilized through a 0.45 μm filter. From these solutions, seven 1:2 serial dilutions were prepared using sterile 10 mM MOPS buffer at pH 7. The final concentration ranges tested were 128 to 2 μg/mL, 16 to […], and 2 to 0.03 μg/mL. The solutions were kept refrigerated until used.
Test compounds (EXAMPLES 1-67) were prepared in sterile water or DMSO at a concentration of 3.2 mg/mL. From this solution, 11 serial 1:2 dilutions were prepared using sterile water. The final concentration range tested was 64 to 0.0313 μg/mL. The solutions were kept refrigerated until used.
Two-fold serial dilutions of test compounds were tested in the presence and absence of subinhibitory concentrations of imipenem (4 μg/mL) in 96-well U bottom microliter dishes in microbiological growth media. The plates were inoculated with bacterial cells to a final concentration of ˜5×10^5 CFU/mL. Test plates were incubated stationery at 37° C. for 22-24 hours.
After 22 hours of incubation, the Minimum inhibitory concentrations (MICs) were determined, defined as the lowest concentration of antibiotic that prevented all visible growth in the absence of imipenem. Synergistic inhibitory concentrations (SICs) were determined, defined as the lowest concentration of antibiotic that prevented all visible growth in the presence of imipenen.

[2] = MRSA COL, absence of imipenem, 22 hours, read-out: MIC

Row | Compound | IC50 (SpsB) | SIC ([1]; MRSA COL, 22 hours) | MIC ([1]; MRSA, 22 h) | MIC [1, 2] | IC50 (SpsB; 20 μM peptide substrate, read-out: SpsB IC50)
1 | CCCCCCCCCc1ccc(-c2ccc3cc(C(=O)NCCC(=O)N[C@@H](CCCCN)C(=O)N(C)[C@@H]4C(=O)N[C@@H](C)C(=O)N[C@H](C(=O)O)Cc5ccc(O)c(c5)-c5cc4ccc5O)sc3c2)cc1 [EXAMPLE 47] | < 10 nM | G (G: SIC <0.0625) | 1 to 8 µg/mL |  | 
2 | CCCc1ccc(-c2ccc(C(=O)NCCC(=O)N[C@H](CCCCN)C(=O)N(C)[C@@H]3C(=O)N[C@@H](C)C(=O)N[C@H](C(=O)O)Cc4ccc(O)c(c4)-c4cc3ccc4O)cc2)cc1.O=C(O)C(F)(F)F [EXAMPLE 4, (5R)-6-[[(7S,10S,13S)-13-carboxy-3,18-dihydroxy-10-methyl-8,11-dioxo-9,12-diazatricyclo[13.3.1.1^2,6]icosa-1(19),2(20),3,5,15,17-hexaen-7-yl](methyl)amino]-6-oxo-5-[(3-{[(4′-propylbipherryl-4-yl)carbonyl]amino}propanoyl)amino]hexan-1-aminium trifluoroacetate] | > 50 nM | I (I: SIC >1) |  | > 8 µg/mL | 
3 | CCCCCCCCCCc1ccc2nc(C(=O)NCCC(=O)N[C@@H](CCCCN)C(=O)N(C)[C@@H]3C(=O)N[C@@H](C)C(=O)N[C@H](C(=O)O)Cc4ccc(O)c(c4)-c4cc3ccc4O)ccc2c1 [EXAMPLE 62] | 10 to 50 nM | G (G: SIC <0.0625) |  | < 1 µg/mL | 
4 | CCCCCCCCCc1ccc(-c2ccc(C(=O)NCCC(=O)N[C@@H](CCCCN)C(=O)N(C)[C@@H]3C(=O)N[C@@H](C)C(=O)N[C@H](C(=O)O)Cc4ccc(O)c(c4)-c4cc3ccc4O)cc2C)cc1 [EXAMPLE 58] | < 10 nM | G (G: SIC <0.0625) | < 1 µg/mL |  | 
5 | CCCCc1ccc(-c2ccc(C(=O)NCCC(=O)N[C@@H](CCCCN)C(=O)N(C)[C@@H]3C(=O)N[C@@H](C)C(=O)N[C@H](C(=O)O)Cc4ccc(O)c(c4)-c4cc3ccc4O)cc2)cc1 [EXAMPLE 51] | < 10 nM | G (G: SIC <0.0625) | < 1 µg/mL |  | 
6 | CCCc1ccc(-c2ccc(C(=O)NCCC(=O)N(CCCCN)CC(=O)N(C)[C@@H]3C(=O)N[C@@H](C)C(=O)N[C@H](C(=O)O)Cc4ccc(OC)c(c4)-c4cc3ccc4OC)cc2)cc1.O=C(O)C(F)(F)F [EXAMPLE 11, 4-[{2-[[(7S,10S,13S)-13-carboxy-3,18-dimethoxy-10-methyl-8,11-dioxo-9,12-diazatricyclo[13.3.1.1^2,6]icosa-1(19),2(20),3,5,15,17-hexaen-7-yl](methyl)amino]-2-oxoethyl}(3-{[(4′-propylbiphenyl-4-yl)carbonyl]amino}propanoyl)amino]butan-1-aminium trifluoroacetate] |  | H (H: SIC 0.062-1) |  | > 8 µg/mL | 10 to 50 nM
7 | C[C@@H]1NC(=O)[C@@H](N(C)C(=O)[C@H](CCCCN)NC(=O)CCNC(=O)c2ccc(CCCCCCCc3ccccc3)cc2)c2ccc(O)c(c2)-c2cc(ccc2O)C[C@@H](C(=O)O)NC1=O [EXAMPLE 38] | < 10 nM | G (G: SIC <0.0625) | < 1 µg/mL |  | 
8 | CC(C)CCCCCCc1ccc(-c2ccc(C(=O)NCCC(=O)N[C@@H](CCCCN)C(=O)N(C)[C@@H]3C(=O)N[C@@H](C)C(=O)N[C@H](C(=O)O)Cc4ccc(O)c(c4)-c4cc3ccc4O)cc2)cc1 [EXAMPLE 37] | < 10 nM | G (G: SIC <0.0625) | < 1 µg/mL |  | 
9 | CCCCCCCCCc1ccc(-c2nc(C(=O)NCCC(=O)N[C@@H](CCCCN)C(=O)N(C)[C@@H]3C(=O)N[C@@H](C)C(=O)N[C@H](C(=O)O)Cc4ccc(O)c(c4)-c4cc3ccc4O)cs2)cc1 [EXAMPLE 41] | < 10 nM | G (G: SIC <0.0625) | < 1 µg/mL |  | 
10 | CCCCCCCCCCc1ccc2ccc(C(=O)NCCC(=O)N3CCC[C@H]3C(=O)N(C)[C@@H]3C(=O)N[C@@H](C)C(=O)N[C@H](C(=O)O)Cc4cccc(c4)-c4cc3ccc4OC)cc2c1 [EXAMPLE 67] | 10 to 50 nM | I (I: SIC >1) |  | > 8 µg/mL | 
11 | CCCc1ccc(-c2ccc(C(=O)NCCC(=O)N[C@@H](CCCCNC=N)C(=O)N(C)[C@@H]3C(=O)N[C@@H](C)C(=O)N[C@H](C(=O)O)Cc4ccc(O)c(c4)-c4cc3ccc4O)cc2)cc1 [EXAMPLE 48] | < 10 nM | H (H: SIC 0.062-1) | 1 to 8 µg/mL |  | 
12 | CCCCCCCCCc1ccc(-c2ncc(C(=O)NCCC(=O)N[C@@H](CCCCN(C)C)C(=O)N(C)[C@@H]3C(=O)N[C@@H](C)C(=O)N[C@H](C(=O)O)Cc4ccc(O)c(c4)-c4cc3ccc4O)cn2)cc1 [EXAMPLE 34] | < 10 nM | G (G: SIC <0.0625) | < 1 µg/mL |  | 
13 | CCCc1ccc(-c2ccc(C(=O)NCCC(=O)N3CC(CCN)C[C@H]3C(=O)N(C)[C@@H]3C(=O)N[C@@H](C)C(=O)N[C@H](C(=O)O)Cc4ccc(O)c(c4)-c4cc3ccc4O)cc2)cc1 (stereo partly drawn) [EXAMPLE 53] | < 10 nM | G (G: SIC <0.0625) | < 1 µg/mL |  | 
14 | CCCCCCCCCc1ccc(-c2ccc(C(=O)NCCC(=O)N[C@@H](CCCN)C(=O)N(C)C3C(=O)N[C@@H](C)C(=O)N[C@H](C(=O)O)Cc4ccc(O)c(c4)-c4cc3ccc4O)cc2)cc1 (stereo partly drawn) [EXAMPLE 24] | < 10 nM | G (G: SIC <0.0625) | < 1 µg/mL |  | 
15 | COc1ccc2cc1-c1cc(ccc1OC)[C@H](N(C)C(=O)[C@H](CCCCN)NC(=O)CCNC(=O)c1ccc(-c3ccc(CCCCCCCCC(C)(C)O)cc3)cc1)C(=O)N[C@@H](C)C(=O)N[C@H](C(=O)O)C2 [EXAMPLE 56] | < 10 nM | H (H: SIC 0.062-1) | 1 to 8 µg/mL |  | 
16 | CCCc1ccc(-c2ccc(C(=O)NCCC(=O)NC(CCCCN)C(=O)N(C)[C@@H]3C(=O)N[C@@H](C)C(=O)N[C@H](C(=O)O)Cc4ccc(OC)c(c4)-c4cc3ccc4OC)cc2)cc1.O=C(O)C(F)(F)F (stereo partly drawn) [EXAMPLE 1, 6-[[(7S,10S,13S)-13-carboxy-3,18-dimethoxy-10-methyl-8,11-dioxo-9,12-diazatricyclo[13.3.1.1^2,6]icosa-1(19),2(20),3,5,15,17-hexaen-7-yl](methyl)amino]-6-oxo-5-[(3-{[(4′-propylbiphenyl-4-yl)carbonyl]amino}propanoyl)amino]hexan-1-aminium trifluoroacetate] | 10 to 50 nM | H (H: SIC 0.062-1) |  | 1 to 8 µg/mL | 
17 | CCCCCCc1ccc(-c2ccc(C(=O)NCCC(=O)N[C@@H](CCCCN)C(=O)N(C)[C@@H]3C(=O)N[C@@H](C)C(=O)N[C@H](C(=O)O)Cc4ccc(O)c(c4)-c4cc3ccc4O)cc2)cc1 [EXAMPLE 31] | < 10 nM | G (G: SIC <0.0625) | < 1 µg/mL |  | 
18 | CC(C)CCCC(C)CCc1ccc(-c2ccc(C(=O)NCCC(=O)N[C@@H](CCCCN)C(=O)N(C)[C@@H]3C(=O)N[C@@H](C)C(=O)N[C@H](C(=O)O)Cc4ccc(O)c(c4)-c4cc3ccc4O)cc2)cc1 (stereo partly drawn) [EXAMPLE 25] | < 10 nM | G (G: SIC <0.0625) | < 1 µg/mL |  | 
19 | CCCCCCCCCc1ccc(-c2ccc(C(=O)NCCC(=O)N[C@@H](CCCCN)C(=O)N(C)[C@@H]3C(=O)N[C@@H](C)C(=O)N[C@H](C(=O)O)Cc4ccc(O)c(c4)-c4cc3ccc4O)cc2)cc1.O=C(O)C(F)(F)F [EXAMPLE 16, (5S)-6-[[(7S,10S,13S)-13-carboxy-3,18-dihydroxy-10-methyl-8,11-dioxo-9,12-diazatricyclo[13.3.1.1^2,6]icosa-1(19),2(20),3,5,15,17-hexaen-7-yl](methyl)amino]-5-[(3-{[(4′-nonylbiphenyl-4-yl)carbonyl]amino}propanoyl)amino]-6-oxohexan-1-aminium trifluoroacetate] | < 10 nM | G (G: SIC <0.0625) |  | < 1 µg/mL | 
20 | C[C@@H]1NC(=O)[C@@H](N(C)C(=O)C(CCCCN)NC(=O)CCNC(=O)c2ccc(-c3ccc(-c4ccccc4)cc3)cc2)c2ccc(O)c(c2)-c2cc(ccc2O)C[C@@H](C(=O)O)NC1=O.O=C(O)C(F)(F)F (stereo partly drawn) [EXAMPLE 7, 6-[[(7S,10S,13S)-13-carboxy-3,18-dihydroxy-10-methyl-8,11-dioxo-9,12-diazatricyclo[13.3.1.1^2,6]icosa-1(19),2(20),3,5,15,17-hexaen-7-yl](methyl)amino]-6-oxo-5-({3-[(1,1′:4′,1″-terphenyl-4-ylcarbonyl)amino]propanoyl}amino)hexan-1-aminium trifluoroacetate] | 10 to 50 nM | H (H: SIC 0.062-1) |  | < 1 µg/mL | 
